# Source: patent publication US20250243245A1 (priority 2022, published 2025)
# Where a SMILES comes first, the peptide text is derived from it.
# Tested on: E. coli strain BL21
# Conditions: BL21, 24 h
row,SMILES,MIC
1,CC[C@H](C)[C@H](N)C(=O)N[C@@H](CCC(=O)O)C(=O)N[C@@H](CCCNC(=N)N)C(=O)N[C@@H](CO)C(=O)N[C@@H](CCCNC(=N)N)C(=O)N[C@@H](CC(N)=O)C(=O)N[C@@H](CC(C)C)C(=O)N[C@@H](CC(=O)O)C(=O)N[C@@H](Cc1c[nH]c2ccccc12)C(=O)N[C@@H](Cc1ccc(O)cc1)C(=O)N[C@@H](CCCCN)C(=O)NCC(=O)N1CCC[C@H]1C(=O)N[C@H](C(=O)N[C@@H](CC(C)C)C(=O)N[C@@H](CC(C)C)C(=O)N[C@@H](CC(=O)O)C(=O)N[C@@H](C)C(=O)N[C@@H](CC(C)C)C(=O)N[C@@H](CCCCN)C(=O)N[C@@H](CC(N)=O)C(=O)N[C@@H](CC(C)C)C(=O)N[C@@H](CC(N)=O)C(=O)N[C@@H](CCC(=O)O)C(=O)NCC(=O)N[C@@H](CCCCN)C(=O)N[C@@H](CCCNC(=N)N)C(=O)O)[C@@H](C)O [Peptide I27AB] (H-IERSRNLDWYKGPTLLDALKNLNEGKR-OH; N-terminus and C-terminus assumed),>20 mM
2,CC[C@H](C)[C@H](N)C(=O)N[C@@H](CCC(=O)O)C(=O)N[C@@H](CCCNC(=N)N)C(=O)N[C@@H](CO)C(=O)N[C@@H](CCCNC(=N)N)C(=O)N[C@@H](CC(N)=O)C(=O)N[C@@H](CC(C)C)C(=O)N[C@@H](CC(=O)O)C(=O)N[C@@H](Cc1c[nH]c2ccccc12)C(=O)N[C@@H](Cc1ccc(O)cc1)C(=O)N[C@@H](CCCCN)C(=O)NCC(=O)N1CCC[C@H]1C(=O)N[C@H](C(=O)N[C@@H](CC(C)C)C(=O)N[C@@H](CC(C)C)C(=O)N[C@@H](CC(=O)O)C(=O)N[C@@H](C)C(=O)N[C@@H](CC(C)C)C(=O)N[C@@H](CCCCN)C(=O)N[C@@H](CC(N)=O)C(=O)N[C@@H](CC(C)C)C(=O)N[C@@H](CC(N)=O)C(=O)N[C@@H](CCC(=O)O)C(=O)NCC(=O)N[C@@H](CCCCN)C(=O)N[C@@H](CCCNC(=N)N)C(=O)N1CCC[C@H]1C(=O)N[C@@H](CO)C(=O)N[C@@H](CC(=O)O)C(=O)N[C@@H](CCCCN)C(=O)O)[C@@H](C)O [Peptide I31LB] (H-IERSRNLDWYKGPTLLDALKNLNEGKRPSDK-OH; N-terminus and C-terminus assumed),>20 mM
3,CC[C@H](C)[C@H](NC(=O)[C@H](CCCNC(=N)N)NC(=O)[C@H](CCCNC(=N)N)NC(=O)[C@H](CCC(N)=O)NC(=O)[C@H](Cc1c[nH]c2ccccc12)NC(=O)[C@H](Cc1ccccc1)NC(=O)CNC(=O)[C@@H]1CCCN1C(=O)[C@H](CO)NC(=O)CNC(=O)[C@H](Cc1ccc(O)cc1)NC(=O)[C@@H](NC(=O)[C@H](CO)NC(=O)CNC(=O)[C@H](Cc1ccc(O)cc1)NC(=O)[C@H](CO)NC(=O)CNC(=O)[C@H](CCCNC(=N)N)NC(=O)[C@H](Cc1c[nH]c2ccccc12)NC(=O)[C@H](Cc1c[nH]c2ccccc12)NC(=O)[C@H](CCCNC(=N)N)NC(=O)[C@H](Cc1c[nH]c2ccccc12)NC(=O)[C@H](Cc1c[nH]c2ccccc12)NC(=O)[C@H](CCCNC(=N)N)NC(=O)[C@@H](N)CCCNC(=N)N)C(C)C)C(=O)N[C@@H](CCCNC(=N)N)C(=O)N[C@@H](CCCNC(=N)N)C(=O)N[C@@H](Cc1c[nH]c2ccccc12)C(=O)N[C@@H](CCCNC(=N)N)C(=O)N[C@@H](CCCNC(=N)N)C(=O)O [UGI-7] (H-RRWWRWWRGSYGSVYGSPGFWQRRIRRWRR-OH; N-terminus and C-terminus assumed),5 to 10 mM
4,CC(C)C[C@H](NC(=O)[C@H](CCCNC(=N)N)NC(=O)[C@H](CCCNC(=N)N)NC(=O)[C@H](CCC(N)=O)NC(=O)[C@H](Cc1c[nH]c2ccccc12)NC(=O)[C@H](CCC(N)=O)NC(=O)[C@H](Cc1ccccc1)NC(=O)[C@H](C)NC(=O)[C@H](CCC(=O)O)NC(=O)[C@@H]1CCCN1C(=O)[C@H](CC(C)C)NC(=O)[C@@H](N)CCCNC(=N)N)C(=O)N[C@@H](CCCNC(=N)N)C(=O)N[C@@H](CCCNC(=N)N)C(=O)N[C@@H](Cc1c[nH]c2ccccc12)C(=O)N[C@@H](CCCNC(=N)N)C(=O)N[C@@H](CCCNC(=N)N)C(=O)N1CCC[C@H]1C(=O)N[C@@H](CC(=O)O)C(=O)N[C@@H](CO)C(=O)N1CCC[C@H]1C(=O)NCC(=O)N[C@@H](CCCNC(=N)N)C(=O)N[C@@H](CCCNC(=N)N)C(=O)N[C@@H](Cc1c[nH]c2ccccc12)C(=O)N[C@@H](Cc1c[nH]c2ccccc12)C(=O)N[C@@H](CCCNC(=N)N)C(=O)N[C@@H](Cc1c[nH]c2ccccc12)C(=O)N[C@@H](Cc1c[nH]c2ccccc12)C(=O)N[C@@H](CCCNC(=N)N)C(=O)O [UGK-5] (H-RLPEAFQWQRRLRRWRRPDSPGRRWWRWWR-OH; N-terminus and C-terminus assumed),5 to 10 mM
5,CC[C@H](C)[C@H](NC(=O)[C@H](CCCNC(=N)N)NC(=O)[C@H](CCCNC(=N)N)NC(=O)[C@H](CCC(N)=O)NC(=O)[C@H](Cc1c[nH]c2ccccc12)NC(=O)[C@H](Cc1ccccc1)NC(=O)CNC(=O)[C@@H]1CCCN1C(=O)[C@H](CO)NC(=O)CNC(=O)[C@H](CCCCN)NC(=O)[C@H](CC(C)C)NC(=O)[C@H](CO)NC(=O)[C@H](CCCCN)NC(=O)[C@H](CC(C)C)NC(=O)[C@@H](NC(=O)[C@H](CCC(=O)O)NC(=O)[C@H](CC(C)C)NC(=O)[C@H](CC(C)C)NC(=O)[C@H](CCCCN)NC(=O)[C@H](CCC(N)=O)NC(=O)[C@@H]1CCCN1C(=O)[C@H](CC(C)C)NC(=O)[C@H](CCCCN)NC(=O)[C@@H](N)CCCCN)[C@@H](C)CC)C(=O)N[C@@H](CCCNC(=N)N)C(=O)N[C@@H](CCCNC(=N)N)C(=O)N[C@@H](Cc1c[nH]c2ccccc12)C(=O)N[C@@H](CCCNC(=N)N)C(=O)N[C@@H](CCCNC(=N)N)C(=O)O [UGK-21],1.25 to 2.5 mM
6,CC[C@H](C)[C@H](NC(=O)[C@H](CCCNC(=N)N)NC(=O)[C@H](CCCNC(=N)N)NC(=O)[C@H](CCC(N)=O)NC(=O)[C@H](Cc1c[nH]c2ccccc12)NC(=O)[C@H](Cc1ccccc1)NC(=O)CNC(=O)[C@@H]1CCCN1C(=O)[C@H](CO)NC(=O)CNC(=O)[C@H](CCC(=O)O)NC(=O)[C@H](CC(C)C)NC(=O)[C@H](CO)NC(=O)[C@H](CCCCN)NC(=O)[C@H](CC(C)C)NC(=O)[C@@H](NC(=O)[C@H](CCC(=O)O)NC(=O)[C@H](CC(C)C)NC(=O)[C@H](CC(C)C)NC(=O)[C@H](CCCCN)NC(=O)[C@H](CCC(=O)O)NC(=O)[C@@H]1CCCN1C(=O)[C@H](CC(C)C)NC(=O)[C@H](CCCCN)NC(=O)[C@@H](N)CCCCN)[C@@H](C)CC)C(=O)N[C@@H](CCCNC(=N)N)C(=O)N[C@@H](CCCNC(=N)N)C(=O)N[C@@H](Cc1c[nH]c2ccccc12)C(=O)N[C@@H](CCCNC(=N)N)C(=O)N[C@@H](CCCNC(=N)N)C(=O)O [UGK-25] (H-KKLPEKLLEILKSLEGSPGFWQRRIRRWRR-OH; N-terminus and C-terminus assumed),2.5 to 5 mM
7,CSCC[C@H](NC(=O)[C@H](Cc1c[nH]c2ccccc12)NC(=O)[C@H](CCC(=O)O)NC(=O)[C@H](Cc1c[nH]c2ccccc12)NC(=O)[C@H](Cc1c[nH]c2ccccc12)NC(=O)[C@H](CCCNC(=N)N)NC(=O)[C@H](CCCNC(=N)N)NC(=O)[C@H](CCC(=O)O)NC(=O)[C@H](CC(C)C)NC(=O)[C@@H]1CCCN1C(=O)[C@H](CO)NC(=O)[C@H](CC(=O)O)NC(=O)[C@H](CC(C)C)NC(=O)[C@H](CC(C)C)NC(=O)[C@H](CCCNC(=N)N)NC(=O)[C@H](CCCNC(=N)N)NC(=O)[C@@H](NC(=O)[C@H](CC(C)C)NC(=O)[C@H](CCC(=O)O)NC(=O)[C@H](CCC(N)=O)NC(=O)[C@H](CC(C)C)NC(=O)[C@H](CCC(N)=O)NC(=O)[C@H](CCC(=O)O)NC(=O)[C@H](CO)NC(=O)CNC(=O)[C@H](CCCNC(=N)N)NC(=O)[C@@H]1CCCN1C(=O)[C@@H](N)CCCCN)[C@@H](C)O)C(=O)N[C@@H](CCCNC(=N)N)C(=O)N[C@@H](CCCNC(=N)N)C(=O)O [UGK-29] (H-KPRGSEQLQELTRRLLDSPLERRWWEWMRR-OH; N-terminus and C-terminus assumed),>20 mM
8,CC(C)C[C@H](NC(=O)[C@H](CCC(N)=O)NC(=O)[C@H](CCC(=O)O)NC(=O)[C@H](CO)NC(=O)[C@H](CC(C)C)NC(=O)[C@H](CCCNC(=N)N)NC(=O)[C@@H]1CCCN1C(=O)[C@@H](N)CCCCN)C(=O)N[C@@H](CCC(N)=O)C(=O)N[C@@H](CCC(=O)O)C(=O)N[C@@H](CC(C)C)C(=O)N[C@H](C(=O)N[C@@H](CCCNC(=N)N)C(=O)N[C@@H](CCCNC(=N)N)C(=O)N[C@@H](CC(C)C)C(=O)N[C@@H](CC(C)C)C(=O)N[C@@H](CC(=O)O)C(=O)N[C@@H](CO)C(=O)N1CCC[C@H]1C(=O)N[C@@H](CC(C)C)C(=O)N[C@@H](CCC(=O)O)C(=O)N[C@@H](CCCNC(=N)N)C(=O)N[C@@H](CCCNC(=N)N)C(=O)N[C@@H](Cc1c[nH]c2ccccc12)C(=O)N[C@@H](Cc1c[nH]c2ccccc12)C(=O)N[C@@H](CCC(=O)O)C(=O)N[C@@H](Cc1c[nH]c2ccccc12)C(=O)N[C@@H](Cc1c[nH]c2ccccc12)C(=O)N[C@@H](CCCNC(=N)N)C(=O)N[C@@H](CCCNC(=N)N)C(=O)O)[C@@H](C)O [UGK-33] (H-KPRLSEQLQELTRRLLDSPLERRWWEWWRR-OH; N-terminus and C-terminus assumed),>20 mM
9,"CSCC[C@H](NC(=O)[C@H](Cc1c[nH]c2ccccc12)NC(=O)[C@H](CCC(N)=O)NC(=O)[C@H](Cc1c[nH]c2ccccc12)NC(=O)[C@H](Cc1ccccc1)NC(=O)[C@H](CCCNC(=N)N)NC(=O)[C@H](CCCNC(=N)N)NC(=O)[C@H](CCC(=O)O)NC(=O)[C@H](CC(C)C)NC(=O)[C@@H]1CCCN1C(=O)[C@H](CO)NC(=O)[C@H](CC(=O)O)NC(=O)[C@H](CC(C)C)NC(=O)[C@H](CC(C)C)NC(=O)[C@H](CCCNC(=N)N)NC(=O)[C@H](CCCNC(=N)N)NC(=O)[C@@H](NC(=O)[C@H](CC(C)C)NC(=O)[C@H](CCC(=O)O)NC(=O)[C@H](CCC(N)=O)NC(=O)[C@H](CC(C)C)NC(=O)[C@H](CCC(N)=O)NC(=O)[C@H](CCC(=O)O)NC(=O)[C@H](CO)NC(=O)CNC(=O)[C@H](CCCNC(=N)N)NC(=O)[C@@H]1CCCN1C(=O)[C@@H](N)CCCCN)[C@@H](C)O)C(=O)N[C@@H](CCCNC(=N)N)C(=O)N[C@@H](CCCNC(=N)N)C(=O)O [UGK-37, KPRGSEQLQELTRRLLDSPLERRFWOWMRR] (H-KPRGSEQLQELTRRLLDSPLERRFWQWMRR-OH; N-terminus and C-terminus assumed)",>20 mM
